Assay results: patent US20250154468A1, “METHOD FOR INDUCING DEDIFFERENTIATION OF ADIPOCYTES” (City University of Hong Kong, priority 2023, published 2025)

Key:
Type in all cases: cell-based, mouse
3T3-L1 adipocytes [1] = assay: Chondrogenic re-differentiation of treated 3T3-L1 adipocytes; details: BML-284-treated adipocytes
CD13 and Endoglin = assay: Immunostaining of surface markers of dedifferentiated adipocytes; details: BML-284 treated cells
Experimental: Twelve hours before the experiment, cells were seeded onto cover slips in 12-well dishes and cultured overnight at 37° C. and […]. Cells were fixed with […] for 10 min at 4° C. Next, the cells were either directly incubated with 1% BSA/PBS for 1 h or first permeabilized with 0.1% Triton X-100/PBS for 10 min at 4° C. before blocking with 1% BSA/PBS. Subsequently, CD13 primary antibody (Santa Cruz, product no. sc-13536 1:100) or Endoglin primary antibody (Santa Cruz, product no. sc-18838 1:100) was incubated with cells overnight at 4° C. Following 3 times washing in 0.5% tween/PBS, cells were incubated with secondary antibody (CST, product no. 8890S) in 1% BSA/PBS (1:400) in darkness for 1.5 hours at room temperature. After further washing, cells were mounted with DAPI (Thermo Fisher, product no. 62247) and examined with a Nikon A1HD25 confocal microscope.

3T3-L1 adipocytes [2] = assay: AnnexinV-FITC/PI staining, apoptosis of adipocytes; details: comparison of BML-284 and hypertonic treatment
Experimental: The hypertonic dedifferentiation of adipocytes typically requires up to 7 days of culture in 2% PEG-300. Considering that TNF-α is recognized as a proinflammatory cytokine capable of inducing adipocyte apoptosis, an evaluation of the apoptotic status of adipocytes was carried out using AnnexinV-FITC/PI staining. […] It was concluded that the extended hypertonic treatment could lead to apoptosis alongside the dedifferentiation of adipocytes.

[3] = system: C/EBPβ, PPAR-γ, and adiponectin; assay: RT-qPCR of adipogenic markers in 3T3-L1 adipocytes; details: BML-284 treated cells
Experimental: (§1) Total RNA was isolated using the RNA Extraction Kit (Takara, product no. 9767) in accordance with the manufacturer's recommended protocol. The first-strand cDNA was synthesized using the PrimeScript RT Reagent Kit (Takara, product no. RR047A) for RT-PCR. In brief, a 10 μl system containing 2 μl of 5× PrimeScript RT Master Mix (Perfect Real Time) and RNase-Free Distilled Water and RNA solution, with a total RNA amount of 500 ng, was transferred to the ABI ProFlex PCR System (2×96-well) to perform reverse transcription. RT-PCR was then conducted using the Ex-Taq PCR kit (Takara, product no. RR820A) following the manufacturer's instructions. All RT-qPCR primer sequences were included in Table 2.

Smad 9, Esrrb, and Sox2 = assay: RT-qPCR of multipotency / stem cell marker genes in adipocytes; details: BML-284 treated cells
Experimental: as §1

3T3-L1 adipocytes [4] = assay: Osteogenic re-differentiation of treated 3T3-L1 adipocytes; details: BML-284-treated adipocytes
Experimental: The osteogenic and chondrogenic re-differentiation capacities of dedifferentiated adipocytes were also examined. To induce osteogenic differentiation, 1×10^6 cells were seeded in 6-well plates and incubated overnight at 37° C. and 5% CO2. The culture medium was then replaced with StemPro Osteogenesis Differentiation medium (Thermo Fisher, product no. A1007201) and cells were maintained in this medium for up to 14 days, with medium renewal every 3 days. This medium contains specific factors that promote differentiation towards the osteogenic lineage, allowing the cells to deposit mineralized extracellular matrix and express osteogenic markers.
Alkaline phosphatase (ALP) staining was conducted on Day 9 of the feeder cell-mediated reprogramming process, following the manufacturer's instructions for the Alkaline Phosphatase Detection Kit (Sigma, product no. SCR004). The staining was performed to detect the activity of ALP, a marker of pluripotency, and to assess the success of the reprogramming process.
Total RNA was isolated using the RNA Extraction Kit (Takara, product no. 9767) in accordance with the manufacturer's recommended protocol. The first-strand cDNA was synthesized using the PrimeScript RT Reagent Kit (Takara, product no. RR047A) for RT-PCR. […]

adipocytes = assay: Oil Red O staining of adipocytes; details: BML-284 treatment
Experimental: Adipocytes were stained with Oil red O staining kit (Solarbio, product no. G1262) solution to detect the lipid droplets according to manufacturer's instructions. Specifically, cells were fixed with 10% formalin for 20 min at room temperature, followed by washing with 60% isopropanol for 5 min. Subsequently, staining was conducted with ORO solution for 20 min at room temperature to enable binding of the dye to the lipid droplets. Finally, the cells were washed with distilled water to eliminate any residual dye.

3T3-L1 adipocytes [5] = assay: Loss of lipid droplets and morphological changes of 3T3-L1 adipocytes; parameters: loss of lipid droplets: dose or concentration left out as unconfirmed
Experimental: 3T3-L1 (ATCC CL-173) cells were cultured in DMEM medium (Thermo Fisher, product no. 11965126) containing 10% FBS, 2 mM L-glutamine and […] of penicillin-streptomycin (Thermo Fisher).
1.25×10^5 3T3-L1 were seeded in 6-well dishes and cultured at 37° C. and 5% CO2. The 10 μg/ml insulin (MedChemExpress, product no. HY-P0035), 1 μM dexamethasone (MedChemExpress, product no. HY-14648), 0.5 mM 3-isobutyl-1-methylxanthine (IBMX) (MedChemExpress, product no. HY-12318) and 2 μM rosiglitazone (Sigma, product no. R2408-10MG) (Differentiation medium) were supplemented in culture medium to constitute the differentiation medium for 2 days. Differentiation to SVF was induced by differentiation medium. The SVF cells were incubated for 5 days with differentiation medium. The medium was then changed to DMEM containing 10% FBS, 1×P/S, and 10 μg/ml insulin for 48 h, followed by changing to the culture medium.
[…] […] HY-Y0873), and maintained at 37° C. and 5% CO2. The medium was changed every 3 days, being careful to avoid shaking the dish to allow the hypertonic medium to diffuse slowly in the culture dish.

SVF adipocytes = assay: Loss of lipid droplets and morphological changes of SVF-derived adipocytes; parameters: loss of lipid droplets: dose or concentration left out as unconfirmed
Experimental: C57BL/6J mice were used for the present invention and maintained in a 12:12 h light-dark cycle. All mouse experiments were performed in accordance with the protocol approved by the Institutional Animal Research Ethics Sub-Committee of City University of Hong Kong and Department of Health, The Government of The Hong Kong Special Administrative Region. 6 to 8-week-old female were anesthetized with 4% of isoflurane by inhalation, and then inguinal, retroperitoneal WAT were removed. The tissues were shredded after washing in sterile PBS. Afterwards, the tissue pieces were incubated in type II collagenase (Sigma, product no. C6885) for 1 h at 37° C. before passed through a sterile 100 μm filter. SVF was obtained after 5 min centrifugation at 1000 rpm. Culture medium (DMEM supplemented with 10% FBS and 1% penicillin-streptomycin (all obtained from Thermo Fisher) was added to resuspend the cells, followed by culturing in 100 mm culture dishes. The following day, the culture medium was changed to remove the dead and non-adherent cells.
1.25×10^5 3T3-L1 were seeded in 6-well dishes and cultured at 37° C. and 5% CO2. […]

[6] = system: VDAC and NDUFA9 in the EVs of 3T3-L1 adipocytes; assay: Immunoblot of mitochondrial proteins in EVs of 3T3-L1 adipocytes
Experimental: To obtain lysates, cells were washed twice with cold PBS and lysed with 1 mL of RIPA buffer (Beyotime, product no. P0013B) at 4° C. for 1 hour with gentle rotation. The lysate was subsequently centrifuged at 12,000 g for 20 min at 4° C., and the resulting supernatant was quantified the protein concentration. Protein extracts were then separated by SDS-PAGE and transferred onto a NC membrane (Bio-Rad, product no. 1620112). The membranes were incubated overnight at 4° C. with antibodies against VDAC (CST, product no. 4866s, 1:1000), NDUFA9 (Abcam, product no. ab14713, 1:1000), CD81(Santa Cruz, product no. sc-166029, 1:1000), Non-phospho (Active) β-Catenin (CST, product no. 8814, 1:2000), β-Catenin (CST, product no. 9562, 1:1000) and 3-actin (Santa Cruz, product no. sc-47778, 1:1000). Following incubation with the appropriate secondary antibody (Abcam, product no. ab205719; Thermo Fisher, product no. 31460, 1:4000), the protein bands were visualized using an enhanced chemiluminescence (ECL) kit (Bio-Rad, product no. 170-5061) and captured using a Bio-red ChemiDoc. […]
The 3T3-L1 adipocytes were treated by isotonic and hypertonic medium. […] The resuspended suspensions contain approximately 80 μg protein each as determined by DC protein assay (Bio-Rad, product no. 5000114). […]

[7] = system: TNF-α, IL-6, RIP1, CEBPA, and MCP-1; assay: RT-qPCR of inflammatory genes in 3T3-L1 adipocytes
Experimental: To validate this, MEVs were isolated from the hypertonic treatment of 3T3-L1 adipocytes and subsequently applied to naïve 3T3-L1 adipocytes cultured in isotonic conditions (FIG. 6A).
as §1

[8] = system: mitochondria in adipocytes; assay: MitoTracker Green (MTG) staining of mitochondria; details: pyruvic acid (1 mM) added to the hypertonic treatment
Experimental: Hypertonicity is known to disrupt the ionic homeostasis of cells and reduce the electronic potential in mitochondria, consequentially inhibiting ATP production.
To stain cells with MitoTracker (CST, product no. FM 9074), the 1 mM stock solution should be diluted directly into normal growth media to achieve a staining concentration ranging from 400 nM. The live cells were incubated for 15 minutes at 37° C. Following incubation, live imaging is necessary to visualize the staining pattern within the cells.
To mitigate mitochondrial stress, adipocytes were treated with 1 mM pyruvic acid (Sigma-Aldrich, product no. 107360) in hypertonic cultures. An equivalent volume of DMSO was added to the control samples. Following the treatment, the cells were either subjected to MTG staining or the supernatants were collected for EV isolation and analysis.

COc1cccc(-c2cc(NCc3ccc4c(c3)OCO4)nc(N)n2)c1 [BML-284, 2-amino-4-(3,4-(methylenedioxy)benzylamino)-6-(3-methoxyphenyl)pyrimidine]
expression of chondrogenic markers after inducing treatment (3T3-L1 adipocytes [1]): increased expression | expression of proteins of multipotency (CD13 and endoglin) (CD13 and Endoglin): significant increases | apoptosis in 3T3-L1 adipocytes (3T3-L1 adipocytes [2]): did not lead to significant apoptosis | expression of adipogenic genes (C/EBPβ, PPAR-γ, adiponectin) [3]: significant reductions | expression of marker genes of multipotency (Smad 9, Esrrb, Sox2) (Smad 9, Esrrb, and Sox2): significant increases | expression of osteogenic markers after inducing treatment (3T3-L1 adipocytes [4]): increased expression | Oil red staining (adipocytes): decreased | loss of lipid droplets (3T3-L1 adipocytes [5]; 3T3-L1 adipocytes, isotonic culture, 4 days): 40% | cells with elongated morphology (3T3-L1 adipocytes [5]; BML-284-treated 3T3-L1 adipocytes): significant increases | cells with elongated morphology (SVF adipocytes; BML-284-treated SVF adipocytes): significant increases | loss of lipid droplets (SVF adipocytes; SVF adipocytes, isotonic culture, 4 days): 80%

O=C(/C=C/c1ccc(/C=C/C(=O)Nc2ccc(C3=NCCN3)cc2)cc1)Nc1ccc(C2=NCCN2)cc1 [GW4869]
EVs level of NDUFA9 induced by hypertonic treatments ([6]; 10 μM GW4869, vs DMSO): substantially inhibited

CC(=O)C(=O)O [pyruvic acid]
levels of mitochondrial proteins VDAC and NDUFA9 in the EVs ([6]; pyruvic acid 1 mM in hypertonic culture): reduced | induction of TNF-α expression by hypertonic EVs ([7]; EVs from hypertonic culture with pyruvic acid): prevented | induction of TNF-α and IL-6 expression in hypertonic culture ([7]; pyruvic acid added to the hypertonic culture, 2 hours): abolished | MTG staining of mitochondria in adipocytes [8]: effectively restored
